The source of these data is patent US20260345584A1, “METHODS AND PHARMACEUTICAL COMPOSITIONS FOR TREATING CHEMOTHERAPY-INDUCED PERIPHERAL NEUROPATHY WITH EG5 INHIBITORS” (UNIVERSITY OF MIAMI, priority 2023, published 2026).

In series [1] the test system is CIPN caused by bortezomib. The conditions noted are these: mice (Bobylev et al., 2017); cited from earlier work.
For series [2], the system named is mouse DRG neurons. The conditions noted are these: cultured mouse DRG neurons (Haque et al., 2004); cited from earlier work.
For series [3], the system named is Eg5. Put plainly: Eg5 immunofluorescence in zebrafish caudal fin. The format is in vivo. The conditions noted are these: transient kif11 CRISPR, exon 5. Here is the method:
(§1) The stock solution was divided into 20-30 μl aliquots and stored at −20 °C until use (maximal 6 months). Immediately prior to use, paclitaxel was diluted in Ringer's solution and added to dechorionated larval zebrafish. The larval fish were placed individually or in small groups into wells of a 12-well plate containing the treatment solutions. The control group was 0.05% DMSO. Plates were incubated at 28.5 °C and protected from light. Treatment lengths are indicated in the Drawings, Description of the Drawings, and Examples where appropriate. […] EMD534085, Eg5 inhibitor (MedChemExpress, Cat. No. HY-15000) was diluted in 100% DMSO to make a 10 mM stock solution and stored at −20 °C. […] The solutions were exchanged every 48 hr.
Larval fish were transferred into […] glass vials and fixed in 4% paraformaldehyde (PFA)/1× Phosphate-buffered saline (PBS) for 1.5 hr at room temperature, with gentle rocking. Following a 5-minute incubation in 1×PBS+0.1% Tween-20 (PBST), zebrafish were permeabilized in 1×PBS+0.1% Triton X-100 for 10-30 min. Larval fish were transferred into 2 ml reaction tubes and incubated in blocking buffer (1×PBST+5% BSA) for 30 min at room temperature, with rocking. […]

Series [4] concerns microtubule detyrosination in keratinocytes. Put plainly: GluTub immunofluorescence of detyrosinated microtubules in zebrafish caudal fin keratinocytes. The conditions noted are these: 96 hr. The format is in vivo. As to the method: as §1
Larval fish were transferred into […] glass vials and fixed in 4% paraformaldehyde (PFA)/1× Phosphate-buffered saline (PBS) for 1.5 hr at room temperature, with gentle rocking. Following a 5-minute incubation in 1×PBS+0.1% Tween-20 (PBST), zebrafish were permeabilized in 1×PBS+0.1% Triton X-100 for 10-30 min. Larval fish were transferred into 2 ml reaction tubes and incubated in blocking buffer (1×PBST+5% BSA) for 30 min at room temperature, with rocking. Larval fish were further incubated overnight in antibody solution (Millipore Sigma, Cat. No. AB3201, 1:300 rabbit anti-GluTub; Sigma, Cat No. T6793, 1:500 mouse anti-acetylated tubulin) in blocking buffer at 4 °C, on a rotator. The next morning, larval fish were transferred into 6-well plates and washed 4×15 min in 1×PBST at room temperature, with rocking. This was followed by incubation in secondary antibody (goat anti-rabbit Cy5, Abcam, Cat. No. ab97077; goat anti-mouse Cy3, Abcam, Cat. No. ab97035) and 1:10,000 Hoechst 33342 (ThermoFisher Scientific, Cat. No. 62249, 20 mM solution) in blocking buffer for 1 hr at room temperature, with rocking. Fish were covered to avoid bleaching. […]
Fluorescence intensities were measured using the Imaris MATLAB plugin or Fiji. A line was typically placed over the region of interest and the fluorescence automatically quantified. The values were normalized to nuclear (Hoechst33342) fluorescence intensities within the same fish and region to obtain an intensity ratio.
Stabilized microtubules undergo a modification whereby the terminal tyrosine residue was removed, leading to detyrosination (dMT) (Roll-Mecak et al., 2020, Developmental cell 54: 7-20), which was associated with particularly long-term stabilized microtubule populations (Khawaja et al., 1988, The Journal of cell biology 106: 141-149). Exposure of the penultimate glutamate residue can be detected using a GluTub antibody. […]

For series [5], the system named is cutaneous sensory axons. Put plainly: Axon branch number in caudal fin (acetylated tubulin staining). The format is in vivo, zebrafish. Here is the method:
as §1
(§2) Larval fish were transferred into […] glass vials and fixed in 4% paraformaldehyde (PFA)/1× Phosphate-buffered saline (PBS) for 1.5 hr at room temperature, with gentle rocking. Following a 5-minute incubation in 1×PBS+0.1% Tween-20 (PBST), zebrafish were permeabilized in 1×PBS+0.1% Triton X-100 for 10-30 min. Larval fish were transferred into 2 ml reaction tubes and incubated in blocking buffer (1×PBST+5% BSA) for 30 min at room temperature, with rocking. Larval fish were further incubated overnight in antibody solution (Millipore Sigma, Cat. No. AB3201, 1:300 rabbit anti-GluTub; Sigma, Cat No. T6793, 1:500 mouse anti-acetylated tubulin) in blocking buffer at 4 °C, on a rotator. The next morning, larval fish were transferred into 6-well plates and washed 4×15 min in 1×PBST at room temperature, with rocking. This was followed by incubation in secondary antibody (goat anti-rabbit Cy5, Abcam, Cat. No. ab97077; goat anti-mouse Cy3, Abcam, Cat. No. ab97035) and 1:10,000 Hoechst 33342 (ThermoFisher Scientific, Cat. No. 62249, 20 mM solution) in blocking buffer for 1 hr at room temperature, with rocking. Fish were covered to avoid bleaching. Fish were washed for 4×15 min in 1×PBST at room temperature, with rocking, and immediately mounted for imaging on glass bottom petri dishes (Spectrum Laboratory Products, Cat. No. 750-10403-UE) using 1% agarose (Thermo Fisher Scientific, Cat. No. 16520050). A 1:200 dilution was used for mouse alpha-tubulin antibody (Proteintech, Cat. No. 66031-1) and a 1:1,000 dilution of donkey anti-mouse IgG Alexa488 (ThermoFisher Scientific, Cat. No. A-21202) for secondary detection. For Nox1 immunostaining, a 1:300 dilution of primary antibody (Anti-NOX1 Rabbit Polyclonal Antibody, Avantar, Cat. No. 102164-796) and a 1:1,000 dilution of secondary goat anti-rabbit Cy2 (Abcam, Cat. No. ab6940) antibody was used. Eg5 antibody (Abcam, Cat. No. 61199) was used at a 1:100 and secondary goat anti-rabbit Cy2 (Abcam, Cat. No. ab6940) at 1:1,000 dilution.
Axon branch number quantifications were performed by drawing a 50 μm line across the dorsal, medial, and ventral caudal fin edge region at a distance of 100 μm parallel to the fin edge (which was determined to be the most reliable region to quantify distal branch numbers). Axons traversing this line were counted and averaged per treatment group. Axonal fluorescence measurements were taken using the Imaris Spots function by manually placing spots along the axon and using the fluorescence intensity profile measurements MatLab tool.
Stretching was performed after 96 hr treatment, followed by 2 hr post-stretch fixation, and staining for detection of acetylated tubulin in axons.
To further validate Eg5 as the pharmacological target of EMD534085 in axon regeneration, zebrafish injected with kif11 CRISPR oligo were also analyzed.

Series [6] deals with caudal fin keratinocytes (dfMTs). Put plainly: dfMT formation (detyrosinated fasciculated looped microtubules) in zebrafish caudal fin keratinocytes. The format is in vivo. Here is the method:
as §1, §2
CRISPR oligos targeting kif11 were designed using the IDT CRISPR design tool (https://www.idtdna.com/site/order/designtool/index/CRISPR_CUSTOM). The oligo (5′-[…] (SEQ ID NO: 21) was designed to anneal within exon 5 of 23 exons total in zebrafish kif11 with expected mutations ~ position 270 bp in the sequenced region using the following primers for PCR amplification: Fwd 5′-[…]-3′ (SEQ ID NO: 22) and Rev 5′-[…]-3′ (SEQ ID NO: 23). The forward primer was used for sequencing and yielded deletions in transiently injected embryos, as shown in example below in which single zebrafish were sequenced (FIG. 10).
The CRISPR oligo was injected using the Alt-R system (IDT, https://www.idtdna.com/pages/technology/crispr/crispr-genome-editing/Alt-R-systems/cas9), which has provided highly reliable and efficient zebrafish knockout results as used herein. The IDT-recommended protocol (below) was used for CRISPR oligo preparations. Fertilized eggs were injected ~15 minutes post fertilization with CRISPR oligos to ensure maximal efficiency.
Cell counting in the caudal fin was performed in three 100 μm^2 boxes in the dorsal, medial and ventral caudal fin (~100 μm from the edge). […]

`CCOC(=O)C1=C(C)NC(=S)NC1c1cccc(O)c1` (centres unmarked) [monastrol]: the “effect on CIPN caused by bortezomib” value in series [1] was “shown to alleviate CIPN caused by bortezomib”. The neurite outgrowth result in series [2] was “promotes neurite outgrowth”.
Regarding “kif11 CRISPR: CRISPR oligo (5′-AGGTGACCGATCACCCAATG (SEQ ID NO: 21)) targeting exon 5 of zebrafish kif11, injected as Cas9 ribonucleoprotein (injected as Cas9 ribonucleoprotein, chemistry not given here)”, the Eg5 protein expression entry in series [3] is reported as “eliminated Eg5 protein expression”. For the same molecule, the “normalized detyrosination fluorescence intensity” value in series [4] (kif11 CRISPR + paclitaxel) is listed as 0.85±0.11; in series [4] (kif11 CRISPR+vehicle), 1.12±0.2. Also, the axon branch number came out at 12.83±0.96 branches/50 μm in series [5] (kif11-CRISPR+22 μM paclitaxel) and 12.08±0.68 branches/50 μm in series [5] (kif11-CRISPR+vehicle). For the same molecule, the “number of keratinocytes per animal with dfMTs” value is on record as 0.29±0.16 in series [6] (kif11 CRISPR+22 μM paclitaxel) and 0±0 in series [6] (kif11 CRISPR+vehicle). Also, the “percent animals with dfMTs” value in series [6] (kif11 CRISPR+22 μM paclitaxel) turned out to be 25%; in series [6] (kif11 CRISPR+vehicle) it was 0%.
